Experiments:
[1] = system: Monochoria vaginalis, Presl.; test: Preemergence weed control under flooded paddy conditions, MOOVA (Monochoria); type: in vivo; conditions: flooded paddy; for herbicidal effect rating, MOOVA: preemergence, rated three to four weeks after treatment; for MOOVA: preemergence weeds, herbicidal effect rating 0-9, three to four weeks after treatment
[2] = system: Oryza sativa, (L.) Tebonnet; test: Rice tolerance to post-transplant applications under flooded paddy conditions (Example 188), ORYSAT (Rice, Tebonnet); conditions: rated three to four weeks after treatment
[3] = system: Cyperus iria; test: Preemergence weed control under flooded paddy conditions, CYPIR (Rice Flatsedge); type: in vivo; conditions: flooded paddy; for herbicidal effect rating, CYPIR: preemergence, rated three to four weeks after treatment; for CYPIR: preemergence weeds, herbicidal effect rating 0-9, three to four weeks after treatment
[4] = system: Echinochloa oryzoides (Ard.) Fritsch.; test: Preemergence weed control under flooded paddy conditions, ECHORC (Watergrass (Calif.)); type: in vivo; conditions: flooded paddy; for herbicidal effect rating, ECHORC: preemergence, rated three to four weeks after treatment; for ECHORC: preemergence weeds, herbicidal effect rating 0-9, three to four weeks after treatment
[5] = system: Oryza sativa, (L.) Tebonnet; test: Rice tolerance to post-transplant applications under flooded paddy conditions (Example 187), ORYSAT (Rice, Tebonnet); conditions: for herbicidal effect rating ORYSAT: rated three to four weeks after treatment; for ORYSAT: herbicidal effect rating 0-9, three to four weeks after treatment; as to herbicidal effect rating ORYSAT: meaning of each grade not given here
[6] = system: Cyperus serotinus, Rottb.; test: Preemergence weed control under flooded paddy conditions, CYPSE (Flatsedge); type: in vivo; conditions: for herbicidal effect rating, CYPSE: preemergence, rated three to four weeks after treatment; for CYPSE: preemergence weeds, herbicidal effect rating 0-9, three to four weeks after treatment
[7] = system: Sagittaria pygmaea, L.; test: Preemergence weed control under flooded paddy conditions, SAGPY (Arrowhead (Pygmaea)); type: in vivo; conditions: flooded paddy; for herbicidal effect rating, SAGPY: preemergence, rated three to four weeks after treatment; for SAGPY: preemergence weeds, herbicidal effect rating 0-9, three to four weeks after treatment
[8] = system: Cyperus serotinus, Rottb.; test: Postemergence weed control under flooded paddy conditions, CYPSE (Flatsedge); type: in vivo; conditions: rated three to four weeks after treatment
[9] = system: Sagittaria pygmaea, L.; test: Postemergence weed control under flooded paddy conditions, SAGPY (Arrowhead (Pygmaea)); type: in vivo; conditions: rated three to four weeks after treatment
[10] = system: Monochoria vaginalis, Presl.; test: Postemergence weed control under flooded paddy conditions, MOOVA (Monochoria); type: in vivo; conditions: rated three to four weeks after treatment
[11] = system: Cyperus iria; test: Postemergence weed control under flooded paddy conditions, CYPIR (Rice Flatsedge); type: in vivo; conditions: rated three to four weeks after treatment
[12] = system: Echinochloa oryzoides (Ard.) Fritsch.; test: Postemergence weed control under flooded paddy conditions, ECHORC (Watergrass (Calif.)); type: in vivo; conditions: rated three to four weeks after treatment

CC(C)S(=O)(=O)NC(=O)c1nsc2ccc(-n3c(=O)cc(C(F)(F)F)n(C)c3=O)cc12 [Example 362, 1,2-Benzisothiazole-3-carboxamide, 5-[3,6-dihydro-3-methyl-2,6-dioxo-4-(trifluoromethyl)-1(2H)-pyrimidinyl]-N-(isopropylsulfonyl)-]
herbicidal effect rating, MOOVA ([1]; Rate 0.0320 kg/ha): 9.0
herbicidal effect rating, MOOVA ([1]; Rate 0.0620 kg/ha): 9.0
herbicidal effect rating, MOOVA ([1]; Rate 0.1250 kg/ha): 9.0
herbicidal effect rating, MOOVA ([1]; Rate 0.2500 kg/ha): 9.0
herbicidal effect rating, MOOVA ([1]; Rate 0.5000 kg/ha): 9.0
herbicidal effect rating, ORYSAT (rice tolerance) ([2]; Rate 0.0320 kg/ha): 3.0
herbicidal effect rating, ORYSAT (rice tolerance) ([2]; Rate 0.0620 kg/ha): 3.0
herbicidal effect rating, ORYSAT (rice tolerance) ([2]; Rate 0.1250 kg/ha): 3.0
herbicidal effect rating, ORYSAT (rice tolerance) ([2]; Rate 0.2500 kg/ha): 6.0
herbicidal effect rating, CYPIR ([3]; Rate 0.0320 kg/ha): 3.0
herbicidal effect rating, CYPIR ([3]; Rate 0.0620 kg/ha): 5.0
herbicidal effect rating, CYPIR ([3]; Rate 0.1250 kg/ha): 5.0
herbicidal effect rating, CYPIR ([3]; Rate 0.2500 kg/ha): 7.0
herbicidal effect rating, CYPIR ([3]; Rate 0.5000 kg/ha): 9.0
herbicidal effect rating, ECHORC ([4]; Rate 0.0320 kg/ha): 4.0
herbicidal effect rating, ECHORC ([4]; Rate 0.0620 kg/ha): 7.0
herbicidal effect rating, ECHORC ([4]; Rate 0.1250 kg/ha): 7.0
herbicidal effect rating, ECHORC ([4]; Rate 0.2500 kg/ha): 9.0
herbicidal effect rating, ECHORC ([4]; Rate 0.5000 kg/ha): 9.0
herbicidal effect rating ORYSAT ([5]; Rate 0.0320 kg/ha): 4.0
herbicidal effect rating ORYSAT ([5]; Rate 0.0620 kg/ha): 4.0
herbicidal effect rating ORYSAT ([5]; Rate 0.1250 kg/ha): 4.0
herbicidal effect rating ORYSAT ([5]; Rate 0.2500 kg/ha): 6.0
herbicidal effect rating ORYSAT ([5]; Rate 0.5000 kg/ha): 8.0
herbicidal effect rating, CYPSE ([6]; Rate 0.0320 kg/ha): 6.0
herbicidal effect rating, CYPSE ([6]; Rate 0.0620 kg/ha): 9.0
herbicidal effect rating, CYPSE ([6]; Rate 0.1250 kg/ha): 9.0
herbicidal effect rating, CYPSE ([6]; Rate 0.2500 kg/ha): 9.0
herbicidal effect rating, CYPSE ([6]; Rate 0.5000 kg/ha): 9.0
herbicidal effect rating, SAGPY ([7]; Rate 0.0320 kg/ha): 9.0
herbicidal effect rating, SAGPY ([7]; Rate 0.0620 kg/ha): 9.0
herbicidal effect rating, SAGPY ([7]; Rate 0.1250 kg/ha): 9.0
herbicidal effect rating, SAGPY ([7]; Rate 0.2500 kg/ha): 9.0
herbicidal effect rating, SAGPY ([7]; Rate 0.5000 kg/ha): 9.0
herbicidal effect rating, CYPSE ([8]; Rate 0.0320 kg/ha): 0.0
herbicidal effect rating, CYPSE ([8]; Rate 0.0620 kg/ha): 9.0
herbicidal effect rating, CYPSE ([8]; Rate 0.1250 kg/ha): 9.0
herbicidal effect rating, CYPSE ([8]; Rate 0.2500 kg/ha): 9.0
herbicidal effect rating, SAGPY ([9]; Rate 0.0320 kg/ha): 0.0
herbicidal effect rating, SAGPY ([9]; Rate 0.0620 kg/ha): 0.0
herbicidal effect rating, SAGPY ([9]; Rate 0.1250 kg/ha): 4.0
herbicidal effect rating, SAGPY ([9]; Rate 0.2500 kg/ha): 8.0
herbicidal effect rating, MOOVA ([10]; Rate 0.0320 kg/ha): 9.0
herbicidal effect rating, MOOVA ([10]; Rate 0.0620 kg/ha): 9.0
herbicidal effect rating, MOOVA ([10]; Rate 0.1250 kg/ha): 9.0
herbicidal effect rating, MOOVA ([10]; Rate 0.2500 kg/ha): 9.0
herbicidal effect rating, CYPIR ([11]; Rate 0.0320 kg/ha): 4.0
herbicidal effect rating, CYPIR ([11]; Rate 0.0620 kg/ha): 7.0
herbicidal effect rating, CYPIR ([11]; Rate 0.1250 kg/ha): 8.0
herbicidal effect rating, CYPIR ([11]; Rate 0.2500 kg/ha): 4.0
herbicidal effect rating, ECHORC ([12]; Rate 0.0320 kg/ha): 0.0
herbicidal effect rating, ECHORC ([12]; Rate 0.0620 kg/ha): 2.0
herbicidal effect rating, ECHORC ([12]; Rate 0.1250 kg/ha): 7.0
herbicidal effect rating, ECHORC ([12]; Rate 0.2500 kg/ha): 9.0

CCCCC(=O)c1nsc2ccc(-n3c(=O)cc(C(F)(F)F)n(C)c3=O)cc12 [Example 431, 2,4(1H,3H)-Pyrimidinedione, 1-methyl-6-(trifluoromethyl)-3-(3-valeryl-1,2-benzisothiazol-5-yl)-]
MOOVA ([1]; 0.0320 kg/ha): 9.0
MOOVA ([1]; 0.0620 kg/ha): 9.0
MOOVA ([1]; 0.1250 kg/ha): 9.0
MOOVA ([1]; 0.2500 kg/ha): 9.0
herbicidal effect rating, ORYSAT (rice tolerance) ([2]; Rate 0.0320 kg/ha): 3.0
herbicidal effect rating, ORYSAT (rice tolerance) ([2]; Rate 0.0620 kg/ha): 3.0
herbicidal effect rating, ORYSAT (rice tolerance) ([2]; Rate 0.1250 kg/ha): 3.0
herbicidal effect rating, ORYSAT (rice tolerance) ([2]; Rate 0.2500 kg/ha): 7.0
CYPIR ([3]; 0.0320 kg/ha): 8.0
CYPIR ([3]; 0.0620 kg/ha): 9.0
CYPIR ([3]; 0.1250 kg/ha): 9.0
CYPIR ([3]; 0.2500 kg/ha): 9.0
ECHORC ([4]; 0.0320 kg/ha): 8.0
ECHORC ([4]; 0.0620 kg/ha): 9.0
ECHORC ([4]; 0.1250 kg/ha): 8.5
ECHORC ([4]; 0.2500 kg/ha): 9.0
ORYSAT ([5]; 0.0320 kg/ha): 3.5
ORYSAT ([5]; 0.0620 kg/ha): 5.5
ORYSAT ([5]; 0.1250 kg/ha): 5.0
ORYSAT ([5]; 0.2500 kg/ha): 6.5
CYPSE ([6]; 0.0320 kg/ha): 0.0
CYPSE ([6]; 0.0620 kg/ha): 4.0
CYPSE ([6]; 0.1250 kg/ha): 7.5
CYPSE ([6]; 0.2500 kg/ha): 9.0
SAGPY ([7]; 0.0320 kg/ha): 3.5
SAGPY ([7]; 0.0620 kg/ha): 5.5
SAGPY ([7]; 0.1250 kg/ha): 7.5
SAGPY ([7]; 0.2500 kg/ha): 9.0
herbicidal effect rating, CYPSE ([8]; Rate 0.0320 kg/ha): 0.0
herbicidal effect rating, CYPSE ([8]; Rate 0.0620 kg/ha): 0.0
herbicidal effect rating, CYPSE ([8]; Rate 0.1250 kg/ha): 0.0
herbicidal effect rating, CYPSE ([8]; Rate 0.2500 kg/ha): 4.0
herbicidal effect rating, SAGPY ([9]; Rate 0.0320 kg/ha): 0.0
herbicidal effect rating, SAGPY ([9]; Rate 0.0620 kg/ha): 0.0
herbicidal effect rating, SAGPY ([9]; Rate 0.1250 kg/ha): 0.0
herbicidal effect rating, SAGPY ([9]; Rate 0.2500 kg/ha): 4.0
herbicidal effect rating, MOOVA ([10]; Rate 0.0320 kg/ha): 6.0
herbicidal effect rating, MOOVA ([10]; Rate 0.0620 kg/ha): 9.0
herbicidal effect rating, MOOVA ([10]; Rate 0.1250 kg/ha): 9.0
herbicidal effect rating, MOOVA ([10]; Rate 0.2500 kg/ha): 9.0
herbicidal effect rating, CYPIR ([11]; Rate 0.0320 kg/ha): 4.0
herbicidal effect rating, CYPIR ([11]; Rate 0.0620 kg/ha): 7.0
herbicidal effect rating, CYPIR ([11]; Rate 0.1250 kg/ha): 9.0
herbicidal effect rating, CYPIR ([11]; Rate 0.2500 kg/ha): 9.0
herbicidal effect rating, ECHORC ([12]; Rate 0.0320 kg/ha): 7.0
herbicidal effect rating, ECHORC ([12]; Rate 0.0620 kg/ha): 9.0
herbicidal effect rating, ECHORC ([12]; Rate 0.1250 kg/ha): 9.0
herbicidal effect rating, ECHORC ([12]; Rate 0.2500 kg/ha): 9.0

From EP0908457B1, “3-(1,2-benzisothiazol- and isoxazol-5-Y1)-2,4(1H,3H)-pyrimidinedione or thione and 3-(1,2-benzisothiazol- and isoxazol-5-y1)-4(3H)-pyrimidinone or thione herbicidal agents” (BASF AKTIENGESELLSCHAFT, priority 1997, dated 1999)
